This is an account of results in patent publication US9468607B2, “Ligand directed toroidal nanoparticles for therapy and diagnostic imaging” (WASHINGTON UNIVERSITY, priority 2007, dated 2016).

Data set [1] in a line: Drug loading efficiency by reverse phase HPLC. Format: physicochemical. The settings on record: drug encapsulated in nanoparticles. As for the experimental part: Amphiphilic polymer (˜30 mg) was taken up in 3 mL of anhydrous chloroform (Aldrich, Inc.) and gently vortexed for 2 min. The organic phase (with or without the presence of any contrast agent, ˜5 mL of chloroform layer) was dried (anhydrous Na2SO4). Excess of anhydrous chloroform (35 mL) was added to the organic phase and was taken in a 50 mL, long necked test tube. Doxorubicin (0.27 mg/mL) was dissolved in 5 mL of nanopure water (0.2 μM) and was injected followed by gentle vortexing for few minutes. The chloroform was then slowly evaporated under reduced pressure at 45° C. for […], maintaining the pressure at 420-440 mbar. To this, an additional 5 mL of nanopure water (0.2 μM) was injected. The dispersion was sonicated in a Branson ultra sonic bath for ½ h (until a clear dispersion formed) maintaining the bath temperature at 50° C.
Amphiphilic polymer (˜27 mg) was taken up in 3 mL of anhydrous chloroform (Aldrich, Inc.) and gently vortexed for 2 min. The organic phase (with or without the presence of any contrast agent) was dried (anhydrous Na2SO4). […]
Doxorubicin was analyzed by reversed-phase HPLC system with Waters 600S as a controller, Waters 626 pump to deliver mobile phase, Waters 717 auto sampler for injection and Waters 474 scanning fluorescence detector at wavelength ex 470 nm/em 555 nm for detection. […]

The conditions of data set [2]: for % Drug remaining: dialysis at 37° C.; for Drug release over 3 days: from nanoparticles, dialysis against 0.9% NaCl, 0.2 mg/ml human serum albumin, 37° C.

Where two headings read alike, the source gives them in different places.

As for `CC[C@@]1(O)C(=O)OCc2c1cc1n(c2=O)Cc2cc3ccccc3nc2-1` [Camptothecin], the loading efficiency in data set [1] is 99+/−0.1%. Further, the “% Drug remaining” value was 93.48% in data set [2] (Day 1, in nanoparticles); 87.57% in data set [2] (Day 2, in nanoparticles); 83.38% in data set [2] (Day 3, in nanoparticles). In addition, the “Drug release over 3 days” value in data set [2] is reported as 20+/−3.5%.
Consider `COc1cccc2c1C(=O)c1c(O)c3c(c(O)c1C2=O)C[C@@](O)(C(=O)CO)C[C@@H]3O[C@H]1C[C@H](N)[C@H](O)[C@H](C)O1` [Doxorubicin], for which the loading efficiency in data set [1] is listed as 98+/−0.1%. For the same compound, the “Drug release over 3 days” value in data set [2] is given as 12+/−0.6%.
